Patent publication US20150071954A1, “STABLE PEPTIDE MIMETICS OF THE HIV-1 GP41 PRE-HAIRPIN INTERMEDIATE” (priority 2012, published 2015)
No end group written: not given here.

Key:
viral strain V570A = assay type: cell-based, HIV-1; settings: HeLa P4R5 cells, virus V570A; read-out: p4/2R5 IC50 V570A
Description: (§1) A number of different experimental methods can be used to determine whether or not a gp41 peptide mimetic can form a stable, faithful mimetic of said internal coiled-coil. For example, an assay designed to measure the ability of the conformationally constrained gp41 peptide mimetics to inhibit infectivity of HIV particles can be performed. In one such assay, HeLa cells stably expressing human CD4 and CCR5 receptors and harboring a β-galactosidase reporter gene driven by a tat-responsive fragment of HIV-2 LTR are infected with HIV-1 of various strains in the presence of gp41 peptide mimetics at varying concentrations. After incubating said cells for a specific period of time, the cells are lysed and β-galactosidase activity is quantified.
(§2) This neutralization assay was performed as previously described in Joyce et al., 2002, J Biol Chem 277:45811-45820 with the following modifications: HeLa P4R5 cells were seeded at 1000 cells/well in a 384-well plate and infected the following day with the appropriate HIV-1 or SHIV virus at a multiplicity of infection of approximately 0.01 in the presence of serial dilutions of immune sera or fractionated IgG 48 hours post infection, and cells were lysed and β-galactosidase activity was measured using a chemiluminescent substrate (GalScreen®, Applied Biosystems™, Life Technologies Corp., Carlsbad, Calif.). For analysis of purified IgG, the data are expressed as IC50, defined as the IgG concentration resulting in 50% reduction of chemiluminescence signal. For analysis of sera, the IC50 is defined as the reciprocal serum dilution resulting in 50% reduced chemiluminescence signal.

HXB2 = assay type: cell-based, HIV-1; settings: HeLa P4R5 cells, virus HXB2; read-out: p4/2R5 IC50 HXB2
Description: as §1, §2

[1] = Analytical ultracentrifugation (oligomeric state); assay type: physicochemical; settings: for AUC Ratio (observed to predicted Mw): AUC condition a: 25 mM Na Acetate, 0.15M NaCl, pH 4; for self-association from AUC ratio of observed to predicted molecular weight: monomeric peptides
Procedure: All analytical ultracentrifugation (AU) experiments were performed with a XL-I analytical ultracentrifuge (Beckman Coulter, Inc., Indianopolis, Ind.) at 20° C. For sedimentation velocity analysis, the samples were centrifuged at 48,000 rpm at 20° C. for 5 hours, with radial absorbance scans taken approximately every 4 minutes. g*(s) analysis was performed with the program DCDT+, version 2.2.1 (John Philo, Thousand Oaks, Calif.) or the Optima XL-I data analysis software (Beckman Coulter, Inc.). Sedimentation equilibrium experiments were conducted at three different loading concentrations and three different rotor speeds (16,000, 20,000, and 30,000). Molecular masses were calculated using the Optima XL-I data analysis software or using Heteroanalysis version 1.1.33 (from the Analytical Ultracentrifugation Facility, Biotechnology and Bioservices Center of the University of Connecticut).

[2] = Circular dichroism (secondary structure, thermal stability); assay type: physicochemical; settings: pH 4, 20° C.
[3] = tested on: D5 IgG binding to 5-helix (recombinant gp41 mimetic); assay: D5/5-Helix Competitive Binding Assay (DCBA), peptide constructs; settings: for IC50: competition for D5 binding to 5-helix, FRET
Procedure: An in vitro binding assay based on fluorescence resonance energy transfer (FRET) was performed as previously described in Caulfield et al., 2010, J Biol Chem 285:40604-40611. Briefly, the assay uses D5 IgG (see U.S. Pat. No. 7,744,887) conjugated to europium cryptate (Eu-D5) and a biotinylated derivative of the recombinant gp41 mimetic 5-helix (5H). Biotin-5H binds to a streptavidin-conjugated allophycocyanin (APC) substrate to form a 5H-SA-APC complex. Binding of Eu-D5 to 5H results in FRET from Eu to APC. When the reaction system is excited at a wavelength of 340 nm, the amount of bound Eu-D5 is measured at the emission wavelength of 665 nm, and total Eu is measured at the emission wavelength of 620 nm. Data are reported as 10000× the ratio of signal at 665 nm to signal at 620 nm. Agents that bind competitively to either component cause a decrease in the ratio value.

[4] = molecular target: gp41 of HIV-1 virus V570A (HIV-1 isolate HXB2) (UniProt P04578); assay: cell-based or functional assay
[5] = molecular target: gp41 of HIV-1 virus HXB2 (HIV-1 isolate HXB2) (UniProt P04578); assay: cell-based or functional assay
gp41 of HIV-1 virus HXB2 = gp41 of HIV-1 virus HXB2 (HIV-1 isolate HXB2, UniProt P04578 512-856); assay: cell-based or functional assay
[6] = molecular target: gp41 of HIV-1 virus V570A (HIV-1 isolate HXB2, UniProt P04578 512-856); assay: cell-based or functional assay
[7] = molecular target: the molecule itself; assay: analytical ultracentrifugation (ratio of observed to predicted molecular weight); self-association
[8] = CD condition a: 50 mM Na Acetate, 0.15M NaCl

Ac-QARQLLSGIVQQQNNLLRAIEAQQHALQLTVWGIKQLQARILAVERYLKDQ-NH2 (N-terminus assumed) [Peptide N51-3B]
IC50 (viral strain V570A): 49.3 nM
IC50 (HXB2): 107 nM
AUC Ratio (observed to predicted Mw) [1]: 3.3
self-association from AUC ratio of observed to predicted molecular weight [1]: strong preference for self-association
CD % (-helix) [2, 8]: 105%
effect of mutations on D5 binding in DCBA [3]: apparent negative impact
IC50 [3]: > 300 nM

Ac-QIRELISKIVEQINNILRAIEAQQHALQLTVWGIKQLQARILAVERYLKDQ-NH2 (N-terminus assumed) [Peptide N51-2B]
IC50 (viral strain V570A): 33.4 nM
IC50 (HXB2): 60.9 nM
AUC Ratio (observed to predicted Mw) [1]: 3.6
self-association from AUC ratio of observed to predicted molecular weight [1]: strong preference for self-association
CD % (-helix) [2, 8]: 97%
effect of mutations on D5 binding in DCBA [3]: apparent negative impact
IC50 [3]: > 300 nM

D5 IgG (antibody)
p4/2R5 IC50 (nM), V570A [4]: 61.7 nM
p4/2R5 IC50 (nM), HXB2 [5]: 179 nM

KTA(N51-3B)3: three thiol tagged monomeric N51-3B peptides ligated on trivalent bromide scaffold KTA-Br (QARQLLSGIVQQQNNLLRAIEAQQHALQLTVWGIKQLQARILAVERYLKDQ-NH2; not fully specified (N-terminus); also: trimer: three S-acetylglycolic thiol-tagged N51-3B ligated on trivalent bromide scaffold KTA-Br)
AUC Observed Mw: precipitation ([1]; pH 7): ppt (pH 7)
CD % (-helix) ([2]; CD condition c: 25 mM Na Acetate): 88%
IC50 [3]: 38.4 nM

B1: N51-3B (L′584) (peptide)
peptide: QARQLLSGIVQQQNNLLRAIEAQQHALQLTVWGIKQLQARILAVERYLKDQ
notes: Monomeric synthetic peptide
p4/2R5 IC50 (nM), HXB2 (gp41 of HIV-1 virus HXB2): 107 nM
p4/2R5 IC50 (nM), V570A [6]: 49.3 nM
binding result [7]: binds

B2: KTA(N51-3B)3 (L′510) (peptide)
peptide: B1 peptide
modifications: not fully specified (N-terminus); also: covalent trimer of three N51-3B peptides on Kemp's triacid scaffold
p4/2R5 IC50 (nM), HXB2 (gp41 of HIV-1 virus HXB2): 79.4 nM
p4/2R5 IC50 (nM), V570A [6]: 29.1 nM

B3: N51-2B (L′583) (peptide)
peptide: QIRELISKIVEQINNILRAIEAQQHALQLTVWGIKQLQARILAVERYLKDQ
modifications: not fully specified (C-terminus)
notes: Monomeric synthetic peptide made on Rink amide resin; Self-associates in solution
p4/2R5 IC50 (nM), HXB2 (gp41 of HIV-1 virus HXB2): 60.9 nM
p4/2R5 IC50 (nM), V570A [6]: 33.4 nM
binding result [7]: binds
